Patent US8685956B2, “Compositions and methods for reducing the risk of agent-induced liver toxicity” (The Board of Trustees of The University of Illinois, priority 2009, dated 2014)
Read-outs that look alike come from different tables or passages of the source.

Tests used:
hepatic glutathione = conditions: after a toxic dose; James et al. 2003; cited from earlier work
inbred mouse strains = assay: APAP-induced liver toxicity in a panel of inbred mouse strains (serum ALT activity); assay type: in vivo; conditions: single 300 mg/kg intraperitoneal injection, 6 hour
Experimental: A panel of inbred mouse strains was studied using an integrated genetic, transcriptional and metabolomic approach in order to better characterize genetic factors affecting susceptibility to APAP-induced liver toxicity.
The liver toxic effect of APAP was assessed by measuring the serum alanine aminotransferase (ALT) activity after a single administration of toxic level (300 mg/kg, intraperitoneal injection) APAP.

APAP poisoning = conditions: cited from earlier work
[1] = tested on: APAP-induced liver toxicity in inbred strains with intact or deficient Bhmt2 activity; assay: Strain-specific effect of SMM or SAM co-administration on APAP-induced liver toxicity; assay type: in vivo, mouse; conditions: 3 hour after APAP
Experimental: The availability of two inbred strains with allelic variants that eliminate Bhmt2 enzyme activity enabled the hypothesis that Bhmt2 is a susceptibility factor for APAP-induced liver toxicity to be tested in vivo. The effect that co-administration of SAM or SMM, which act on sequential steps in the methionine/GSH biosynthesis pathway, had on APAP-induced liver toxicity in strains with intact or deficient Bhmt2 activity was analyzed.
Hepatic glutathione (GSH) and methionine levels and the serum ALT were measured 3 hour after APAP administration to inbred strains. The R and S in the lower panel indicate whether SMM or SAM co-administration should have a protective (Rescue) effect, or not have a beneficial (Susceptible) effect on APAP-induced liver toxicity, respectively.

[2] = tested on: APAP-induced hepatotoxicity; conditions: cited from earlier work
Bhmt2 = target: T1, Bhmt2 (Homo sapiens, UniProt Q9H2M3); conditions: Szegedi et al. 2008; cited from earlier work
T1 sequence (Q9H2M3 1-363): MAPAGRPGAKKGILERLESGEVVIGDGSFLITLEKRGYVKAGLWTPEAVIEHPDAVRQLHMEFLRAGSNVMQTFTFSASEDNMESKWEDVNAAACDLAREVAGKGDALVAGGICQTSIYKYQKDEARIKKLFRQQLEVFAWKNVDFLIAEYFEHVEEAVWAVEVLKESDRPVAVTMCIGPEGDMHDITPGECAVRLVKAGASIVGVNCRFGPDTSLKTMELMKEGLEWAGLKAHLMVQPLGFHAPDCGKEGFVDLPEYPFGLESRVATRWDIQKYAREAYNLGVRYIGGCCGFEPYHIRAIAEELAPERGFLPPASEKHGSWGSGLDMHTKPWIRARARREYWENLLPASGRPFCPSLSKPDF

In the case of `CC(=O)Nc1ccc(O)cc1` [APAP, Acetaminophen], the “depletion of hepatic glutathione” value (hepatic glutathione) is listed as no more than 90%, the “liver injury (serum ALT activity)” value (inbred mouse strains; SJL/J mice) is listed as “resistant phenotype” and the “liver injury (serum alanine aminotransferase (ALT) activity)” value (inbred mouse strains; all strains other than SJL/J) is listed as “Significant liver injury”.

For `CC(=O)N[C@@H](CS)C(=O)O` [N-acetylcysteine], the tolerability (APAP poisoning; oral administration) is given as “poorly tolerated” and the “antidote effect in severe and ongoing APAP poisoning” value (APAP poisoning; patients) is given as “effective antidote”.

For `C[S+](CC[C@H](N)C(=O)O)C[C@H]1O[C@@H](n2cnc3c(N)ncnc32)[C@H](O)[C@@H]1O` (stereo partly drawn) [SAM, S-adenosylmethionine], the “effect of co-administration on APAP-induced liver toxicity (hepatic GSH, methionine, serum ALT)” value (shortened to “effect of co-administration”) ([1]; all strains) is listed as “protective effect in all strains”, the “hepatic GSH levels” value ([2]; C57BL/6J mice, APAP) is listed as “preserve hepatic GSH levels” and the “attenuation of APAP-induced hepatotoxicity” value (“attenuation” for short) ([2]; C57BL/6J mice) is listed as “attenuate APAP-induced hepatotoxicity”. For the same compound, the “attenuation” value ([2]; previously shown) was “attenuate APAP-induced hepatotoxicity” and the “Bhmt2 activity with the substance as methyl donor” value (from here on “Bhmt2 activity with the substance”) (Bhmt2) was “very low activity”.

In the case of `C[S+](C)CC[C@H](N)C(=O)[O-]` [SMM, S-methylmethionine], the “effect of co-administration” value ([1]; strains with active Bhmt2 enzyme (Gly27 allele)) is given as “protective effect”, the “effect of co-administration” value ([1]; strains with inactive (Ser27 allele) Bhmt2 enzyme) is given as “not in strains with inactive (Ser27 allele) enzyme” and the “Bhmt2 activity with the substance” value (Bhmt2) is given as “specific methyltransferase”.

In the case of `C[N+](C)(C)CC(=O)O` [betaine], the “Bhmt2 activity with the substance” value (Bhmt2) is listed as “cannot use betaine as the methyl donor”.

For `CSCC[C@H](N)C(=O)O` [methionine], the “attenuation” value ([2]; previously shown) is given as “attenuate APAP-induced hepatotoxicity”.
